Data reported in US20210228562A1, “IRAK DEGRADERS AND USES THEREOF” (Kymera Therapeutics, Inc., priority 2019, published 2021).
pIC50: −log10 of the molar value.

Legend:
Format in all cases: cell-based
[1] = biological target: T1, Ikaros (protein product of gene IKZF1) (Homo sapiens, UniProt Q13422+Q96SW2); test: Quantification of Ikaros degradation in OCI-LY10 cells (quantitative immunoblotting); settings: 6 h treatment
T1 construct: endogenous in cells; host or cells: OCI-LY10
Method: (§1) Degradation of Ikaros (protein product of gene IKZF1) and Aiolos (protein product of gene IKZF3) were determined by quantitative immunoblotting as follows. OCI-LY10 cells, 2×10^6 cells/well, were treated with listed concentrations of IRAK4 degraders or control compounds in 6 well plates for 6 h. Cells were collected, washed with cold PBS, lysed in RIPA buffer (Boston BioProducts BP-115D) with protease/phosphatase inhibitor cocktail (Roche 05892791001/Roche 04906837001) and centrifuged at 13000 RPM for 20 min to precipitate insoluble material. The supernatant fraction was diluted in SDS-PAGE loading buffer (Beyotime Bio P0015) and 20 μL of each sample was resolved on 4-12% Bis-Tris SDS-PAGE gels (Novex, WG1402BOX). Resolved samples were transferred to nitrocellulose membranes by wet electro-transfer method at 250 mV for 1.5 h. The membrane was blocked with LICOR blocking buffer (LI-COR, 927-50000) for 1 hour, washed three times with TBST (CST #99975) for 5 minutes each and incubated with primary antibody prepared in block buffer with 0.1% Tween-20 (Solarbio, P8220) at 4° C. overnight. Ikaros antibody was rabbit monoclonal D6N9Y (CST #14859), at 1:1000 dilution. Aiolos antibody was rabbit monoclonal D1C1E (CST #15103), at 1:1000 dilution. Signal was normalized to mouse anti-beta-Actin monoclonal 8H10D10 (CST #3700) used at 1:10,000 dilution. After incubation in primary antibodies, membranes were washed three times with TBST, 5 minutes each, incubated with fluorescently labeled secondary antibodies anti-rabbit IgG (Licor, 926-32211) at 1:5000 dilution; anti-mouse IgG (LI-COR, 926-68070) at 1:5000 dilution, for 1 hour at RT. After incubation in secondary, membranes were washed three times with TBST, 5 minutes each and read on LICOR Odyssey imager. Data was reported as signal for Ikaros or Aiolos relative to signal for actin, and normalized to DMSO-treated control.

IRAK4 = biological target: T2, IRAK4 (Homo sapiens, UniProt Q9NWZ3); test: IRAK4 MSD Degradation in OCI-LY10; settings: OCI-LY10 cells, 24 hrs incubation; read-out: IRAK4 degradation in OCI-LY10 at 24 hrs: DC50
T2 construct: endogenous in cells; host or cells: OCI-LY10
T2 sequence (Q9NWZ3 1-460): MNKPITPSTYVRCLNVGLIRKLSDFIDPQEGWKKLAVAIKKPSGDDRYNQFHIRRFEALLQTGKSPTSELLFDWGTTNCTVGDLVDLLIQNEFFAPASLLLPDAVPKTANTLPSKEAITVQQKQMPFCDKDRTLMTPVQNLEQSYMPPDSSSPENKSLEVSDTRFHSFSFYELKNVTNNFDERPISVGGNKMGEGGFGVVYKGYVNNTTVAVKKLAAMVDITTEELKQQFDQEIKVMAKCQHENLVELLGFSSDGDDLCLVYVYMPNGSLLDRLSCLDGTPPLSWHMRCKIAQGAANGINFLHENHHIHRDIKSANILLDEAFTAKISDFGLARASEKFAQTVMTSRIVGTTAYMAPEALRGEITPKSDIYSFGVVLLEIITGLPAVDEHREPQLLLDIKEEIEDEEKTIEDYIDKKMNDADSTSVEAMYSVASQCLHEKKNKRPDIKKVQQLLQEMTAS
Method: Degradation of IRAK4 in OCI-LY10 was quantitatively measured using Meso Scale Discovery technology. OCI-LY10 cells were seeded in 96-well plates (Corning 3799) with a density of 300,000 cells per well in 100 μL fresh media. Compounds were then added to the assay plates with a final top concentration of 1 to 10 μM in a 1:3 dilution series with total of 8 doses. The assay plates were then incubated for 4 to 24 hours at 37° C. under 5% CO2. The assay plates were then centrifuged for 5 minutes and the cell pellets were treated with 100 μL/well RIPA lysis buffer (Boston BioProducts BP-115D) with proteinase inhibitors. To prepare MSD assay plates (Meso Scale Discovery Catalog number L15XA-3), the plates were coated with 2 μg/mL capture antibody (mouse Anti-IRAK4 antibody [2H9], ab119942) in PBS, at 40 μL/well. The plates were then incubated overnight at 4° C., washed 3 times with 150 μL/well TBST buffer (Cell Signaling Technology, Catalog number 9997S) and blocked with 150 μL/well blocking buffer (Meso Scale Discovery Catalog number R93BA-4). Cell lysates were then added to MSD assay plates and the plates were incubated at room temperature for 1 hour. The plates were then washed 3 times with 150 μL/well TBST buffer and 25 μL/well primary detection antibody (rabbit Anti-IRAK4 antibody [Y279], from Abcam. Catalog number ab32511, 1 μg/mL). The assay plates were then incubated at room temperature for 1 hour, washed 3 times with 150 μL/well TBST buffer and 25 μL/well secondary detection antibody, SULFO-TAG anti-rabbit antibody were added (anti rabbit antibody from Meso Scale Discovery, Catalog number R32AB-1, 1 μg/mL). The assay plates were then incubated at room temperature for 1 hour, washed 3 times with 150 μL/well TBST buffer, and 150 μL/well MSD reading buffer (Meso Scale Discovery catalog number R92TC-2) was added. The plates were then analyzed by a MSD reader (Meso Scale Discovery, Model Quick Plex SQ 120). The data was then analyzed by software Prism 7.0 from GraphPad and the dose-depended IRAK4 degradation were fit using a three-parameter logistic equation to calculate DC50.

OCI-LY10 cells = test: CTG Cell Viability Assay - OCI-LY10; settings: Homo sapiens, 96 h, CellTiter-Glo, 4 days incubation
Method: Compound-mediated viability effect on OCI-LY10 or SUDHL-2 was quantitatively determined using the CellTiter-Glo® Luminescent Cell Viability Assay kit from Promega (Catalog number G7570) following manufacturer's recommended procedures. Briefly, OCI-LY10 or SUDHL-2 cells were seeded into 384 well plates (Grenier Bio-One, Catalog number 781080) with a density of 10,000 cells per well. Compounds were then added to the assay plate with final top concentration of 10 μM and 1:3 dilution series with total of 9 doses. The final DMSO concentration was normalized to 0.2%. The assay plates were incubated at 37° C. for 4 days under 5% CO2. Then the assay plate was equilibrated at room temperature for 10 minutes. To determine cell viability, 30 μL CellTiter Glo reagent was added to each well and the assay plate was centrifuged at 1000 rpm for 30 second, incubated at room temperature for 10 min, and analyzed by detecting the luminescence using a multimode plate reader (EnVision 2105, PerkinElmer). The data was then analyzed by software Prism 7.0 from GraphPad and the dose response curves were fit using a three-parameter logistic equation to calculate IC50.

[2] = biological target: T3, Aiolos (protein product of gene IKZF3) (Homo sapiens, UniProt Q96SW2+Q9UKT9); test: Quantification of Aiolos degradation in OCI-LY10 cells (quantitative immunoblotting); settings: 6 h treatment
T3 construct: endogenous in cells; host or cells: OCI-LY10
Method: as §1

T1 sequence (Q13422 whole entry): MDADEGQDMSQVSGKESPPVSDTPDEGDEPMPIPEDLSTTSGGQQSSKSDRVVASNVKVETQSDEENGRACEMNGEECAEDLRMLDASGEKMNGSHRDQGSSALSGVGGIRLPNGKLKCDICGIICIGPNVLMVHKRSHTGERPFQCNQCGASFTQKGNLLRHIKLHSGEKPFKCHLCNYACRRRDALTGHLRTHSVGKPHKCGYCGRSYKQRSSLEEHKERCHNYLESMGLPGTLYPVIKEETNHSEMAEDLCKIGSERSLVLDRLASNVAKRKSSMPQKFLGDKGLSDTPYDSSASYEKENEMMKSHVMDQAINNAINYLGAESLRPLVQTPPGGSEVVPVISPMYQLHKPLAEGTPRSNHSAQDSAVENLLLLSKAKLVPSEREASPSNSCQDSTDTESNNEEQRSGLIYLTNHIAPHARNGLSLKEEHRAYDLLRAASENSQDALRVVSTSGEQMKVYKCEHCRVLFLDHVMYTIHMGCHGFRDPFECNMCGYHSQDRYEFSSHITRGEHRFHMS
T1 sequence (Q96SW2 whole entry): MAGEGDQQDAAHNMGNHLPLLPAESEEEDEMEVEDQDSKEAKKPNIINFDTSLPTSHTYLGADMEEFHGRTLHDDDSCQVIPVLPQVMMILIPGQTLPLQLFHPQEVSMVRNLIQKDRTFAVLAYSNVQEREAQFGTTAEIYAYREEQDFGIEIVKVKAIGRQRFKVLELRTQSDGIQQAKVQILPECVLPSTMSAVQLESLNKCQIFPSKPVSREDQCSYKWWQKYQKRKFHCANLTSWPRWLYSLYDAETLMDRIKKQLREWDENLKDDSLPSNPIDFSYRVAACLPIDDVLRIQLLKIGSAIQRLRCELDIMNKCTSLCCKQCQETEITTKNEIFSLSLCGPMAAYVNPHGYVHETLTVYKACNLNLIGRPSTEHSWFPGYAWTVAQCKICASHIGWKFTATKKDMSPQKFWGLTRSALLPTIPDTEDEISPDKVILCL
T1 sequence (Q16531 whole entry partner): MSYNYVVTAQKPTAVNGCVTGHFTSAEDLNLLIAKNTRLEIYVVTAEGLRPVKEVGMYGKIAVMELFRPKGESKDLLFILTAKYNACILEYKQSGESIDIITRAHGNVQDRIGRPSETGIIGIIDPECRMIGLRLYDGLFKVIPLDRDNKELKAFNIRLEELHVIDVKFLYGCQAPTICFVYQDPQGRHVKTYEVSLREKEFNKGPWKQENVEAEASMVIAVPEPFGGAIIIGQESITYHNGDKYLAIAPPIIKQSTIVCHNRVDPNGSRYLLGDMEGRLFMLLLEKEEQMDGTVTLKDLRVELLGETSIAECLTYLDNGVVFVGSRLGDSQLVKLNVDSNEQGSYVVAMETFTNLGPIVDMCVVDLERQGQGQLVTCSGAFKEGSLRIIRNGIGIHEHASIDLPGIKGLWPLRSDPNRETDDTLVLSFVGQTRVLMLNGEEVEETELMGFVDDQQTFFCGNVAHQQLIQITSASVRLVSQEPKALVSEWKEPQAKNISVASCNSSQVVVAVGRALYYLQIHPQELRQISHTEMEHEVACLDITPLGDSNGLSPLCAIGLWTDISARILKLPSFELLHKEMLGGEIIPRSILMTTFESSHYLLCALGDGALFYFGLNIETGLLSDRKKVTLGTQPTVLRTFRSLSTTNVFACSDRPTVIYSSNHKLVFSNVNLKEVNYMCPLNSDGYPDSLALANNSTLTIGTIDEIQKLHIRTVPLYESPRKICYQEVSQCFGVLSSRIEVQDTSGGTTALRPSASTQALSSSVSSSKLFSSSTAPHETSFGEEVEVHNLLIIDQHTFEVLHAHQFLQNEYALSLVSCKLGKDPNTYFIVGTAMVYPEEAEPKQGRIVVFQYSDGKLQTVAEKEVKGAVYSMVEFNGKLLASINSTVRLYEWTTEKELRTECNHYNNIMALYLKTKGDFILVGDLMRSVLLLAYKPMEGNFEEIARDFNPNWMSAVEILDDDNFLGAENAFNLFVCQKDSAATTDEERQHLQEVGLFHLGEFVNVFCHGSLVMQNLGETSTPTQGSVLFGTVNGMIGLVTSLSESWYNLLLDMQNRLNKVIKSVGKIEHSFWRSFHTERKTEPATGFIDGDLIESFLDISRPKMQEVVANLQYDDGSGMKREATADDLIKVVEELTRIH
T3 sequence (Q9UKT9 whole entry): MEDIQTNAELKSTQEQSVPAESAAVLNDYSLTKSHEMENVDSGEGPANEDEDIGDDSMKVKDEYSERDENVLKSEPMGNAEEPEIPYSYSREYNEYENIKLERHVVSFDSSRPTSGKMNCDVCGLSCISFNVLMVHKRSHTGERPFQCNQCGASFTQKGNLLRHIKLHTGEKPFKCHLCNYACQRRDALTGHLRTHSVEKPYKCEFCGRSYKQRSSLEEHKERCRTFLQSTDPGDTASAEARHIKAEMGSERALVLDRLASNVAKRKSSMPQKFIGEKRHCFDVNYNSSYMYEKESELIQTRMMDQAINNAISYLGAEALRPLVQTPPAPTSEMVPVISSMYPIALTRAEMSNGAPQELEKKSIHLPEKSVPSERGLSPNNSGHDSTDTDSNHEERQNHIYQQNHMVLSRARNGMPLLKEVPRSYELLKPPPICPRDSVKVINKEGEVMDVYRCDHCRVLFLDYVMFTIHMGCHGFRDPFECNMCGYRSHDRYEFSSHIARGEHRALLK
T3 sequence (Q96SW2 whole entry): as the sequence (Q96SW2 whole entry) above
T3 sequence (Q16531 whole entry partner): as the sequence (Q16531 whole entry partner) above

Row | Structure (SMILES) | DC50 [1] | DC50 (IRAK4) | pIC50 (OCI-LY10 cells) | DC50 [2]
1 | CC(C)(O)c1cc2nc([C@H]3CC[C@H](N4CC5(CC(CCNc6cccc7c6C(=O)N(C6CCC(=O)NC6=O)C7=O)C5)C4)CC3)sc2cc1NC(=O)c1cccc(C(F)(F)F)n1 (single isomer, unassigned) [I-63] | < 50 nM | < 50 nM | > 7.30 | < 50 nM
2 | CC(C)(O)c1cc2nc([C@H]3CC[C@@H](N4CC5(CC(CCNc6cccc7c6C(=O)N(C6CCC(=O)NC6=O)C7=O)C5)C4)CC3)sc2cc1NC(=O)c1cccc(C(F)(F)F)n1 (single isomer, unassigned) [I-64] |  |  | > 7.30 | 
3 | COc1cc2nc([C@H]3CC[C@H](CN4CCC5(CC4)CC(CCNc4cccc6c4C(=O)N(C4CCC(=O)NC4=O)C6=O)C5)CC3)sc2cc1NC(=O)c1cccc(C(C)(F)F)n1 (some centres unmarked) [I-19] | 50 to 100 nM | 50 to 100 nM | 6.30 to 7.00 | < 50 nM
4 | COc1cc2nc([C@H]3CC[C@H](CN4CC5(CCC(CNc6cccc7c6C(=O)N(C6CCC(=O)NC6=O)C7=O)CC5)C4)CC3)sc2cc1NC(=O)c1cccc(C(F)(F)F)n1 (some centres unmarked) [I-20] | 100 to 500 nM | 50 to 100 nM | > 7.30 | 100 to 500 nM
5 | COc1cc2nc([C@H]3CC[C@H](CN(C)[C@H]4CC[C@]5(CC4)C[C@@H](CNc4cccc6c4C(=O)N(C4CCC(=O)NC4=O)C6=O)C5)CC3)sc2cc1NC(=O)c1cccc(C(F)(F)F)n1 (some centres unmarked) [I-21] | 50 to 100 nM | 100 to 500 nM | 6.30 to 7.00 | < 50 nM
6 | Cc1cccc(C(=O)Nc2cc3sc([C@H]4CC[C@H](CN5CCC6(CC5)CC(CCNc5cccc7c5C(=O)N(C5CCC(=O)NC5=O)C7=O)C6)CC4)nc3cc2C(C)(C)O)n1 (some centres unmarked) [I-22] | < 50 nM | 50 to 100 nM | > 7.30 | < 50 nM
7 | Cc1cccc(C(=O)Nc2cc3sc([C@H]4CC[C@H](CN(C)[C@H]5CC[C@H](Nc6cccc7c6C(=O)N(C6CCC(=O)NC6=O)C7=O)CC5)CC4)nc3cc2C(C)(C)O)n1 (some centres unmarked) [I-23] | 100 to 500 nM | < 50 nM | 6.30 to 7.00 | < 50 nM
8 | CC(C)(O)c1cc2nc([C@H]3CC[C@H](CN4CCC(CCNc5cccc6c5C(=O)N(C5CCC(=O)NC5=O)C6=O)CC4)CC3)sc2cc1NC(=O)c1cccc(C(F)(F)F)n1 (some centres unmarked) [I-24] | < 50 nM | < 50 nM | > 7.30 | < 50 nM
9 | CN(C[C@H]1CC[C@H](c2nc3cc(C(C)(C)O)c(NC(=O)c4cccc(C(F)(F)F)n4)cc3s2)CC1)[C@H]1CC[C@]2(CC1)C[C@@H](CNc1cccc3c1C(=O)N(C1CCC(=O)NC1=O)C3=O)C2 (some centres unmarked) [I-25] | < 50 nM | 50 to 100 nM | > 7.30 | < 50 nM
10 | CC(C)(O)c1cc2nc([C@H]3CC[C@H](CN4CC5(CC(CNc6cccc7c6C(=O)N(C6CCC(=O)NC6=O)C7=O)C5)C4)CC3)sc2cc1NC(=O)c1cccc(C(F)(F)F)n1 (some centres unmarked) [I-26] | < 50 nM | < 50 nM | 7.00 to 7.30 | < 50 nM
11 | CN(C[C@H]1CC[C@H](c2nc3cc(C(C)(C)O)c(NC(=O)c4cccc(C(F)(F)F)n4)cc3s2)CC1)[C@H]1CC[C@H](CCNc2cccc3c2C(=O)N(C2CCC(=O)NC2=O)C3=O)CC1 (some centres unmarked) [I-27] | < 50 nM | < 50 nM | > 7.30 | < 50 nM
12 | CN(C[C@H]1CC[C@H](c2nc3cc(C(C)(C)O)c(NC(=O)c4cccc(C(F)(F)F)n4)cc3s2)CC1)[C@H]1CC[C@H](Nc2cccc3c2C(=O)N(C2CCC(=O)NC2=O)C3=O)CC1 (some centres unmarked) [I-28] | 50 to 100 nM | < 50 nM | 6.30 to 7.00 | < 50 nM
13 | CC(C)(O)c1cc2nc([C@H]3CC[C@H](CN4CCC5(CC4)CC(CNc4cccc6c4C(=O)N(C4CCC(=O)NC4=O)C6=O)C5)CC3)sc2cc1NC(=O)c1cccc(C(F)(F)F)n1 (some centres unmarked) [I-29] | < 50 nM | < 50 nM | > 7.30 | < 50 nM
14 | CC(C)(O)c1cc2nc([C@H]3CC[C@H](CN4CC5(CCC(CNc6cccc7c6C(=O)N(C6CCC(=O)NC6=O)C7=O)CC5)C4)CC3)sc2cc1NC(=O)c1cccc(C(F)(F)F)n1 (some centres unmarked) [I-30] | < 50 nM | < 50 nM | 7.00 to 7.30 | < 50 nM
15 | Cc1nccc(C(=O)Nc2cc3sc([C@H]4CC[C@H](CN5CC6(CC(CCNc7cccc8c7C(=O)N(C7CCC(=O)NC7=O)C8=O)C6)C5)CC4)nc3cc2C(C)(C)O)n1 (some centres unmarked) [I-51] |  | > 1000 nM | > 7.30 | 
16 | CC(C)(O)c1cc2nc([C@H]3CC[C@H](CN4CC5(CC(CCNc6cccc7c6C(=O)N(C6CCC(=O)NC6=O)C7=O)C5)C4)CC3)sc2cc1NC(=O)c1ccccn1 (some centres unmarked) [I-57] |  |  | > 7.30 | 
17 | CC(C)(O)c1cc2nc([C@H]3CC[C@H](CN4CC5(CC(CCNc6cccc7c6C(=O)N(C6CCC(=O)NC6=O)C7=O)C5)C4)CC3)sc2cc1NC(=O)c1cnccn1 (some centres unmarked) [I-58] |  |  | > 7.30 | 
18 | CC(C)(O)c1cc2nc([C@H]3CC[C@H](CN4CC5(CC(CCNc6cccc7c6C(=O)N(C6CCC(=O)NC6=O)C7=O)C5)C4)CC3)sc2cc1N1CCc2ccccc2C1=O (some centres unmarked) [I-60] |  | < 50 nM | > 7.30 | 
19 | CC(C)(O)c1cc2nc([C@H]3CC[C@@H](CN4CC5(CC(CCNc6cccc7c6C(=O)N(C6CCC(=O)NC6=O)C7=O)C5)C4)CC3)sc2cc1NC(=O)c1cccc(C(F)(F)F)n1 (stereo partly drawn) [I-62, N-(2-((1S,4S)-4-((6-(2-((2-(2,6-dioxopiperidin-3-yl)-1,3-dioxoisoindolin-4-yl)amino)ethyl)-2-azaspiro[3.3]heptan-2-yl)methyl)cyclohexyl)-5-(2-hydroxypropan-2-yl)benzo[d]thiazol-6-yl)-6-(trifluoromethyl)picolinamide] | < 50 nM | 50 to 100 nM |  | < 50 nM
